Columns and labels:
[1] = test system: Primary Mouse Lung Fibroblasts (PMLF); assay: Survival and TGF-β-induced proliferation of Primary Mouse Lung Fibroblasts (MTT); assay type: cell-based; settings: 500 μM, 72 hrs, FIG. 3A
Procedure: Primary Mouse lung fibroblast were prepared as follows. One lung was removed from 2 months old male BaIbC Mouse, perfused with sterile PBS, minced and incubated in 2 ml of serum free Dulbecco's Modified Eagle's Medium (DMEM) containing 100 μg/ml of collagenase I for one hour at 37° C. Each sample was centrifuged at 1500 r.p.m (revolution per minute) for 5 minutes, washed three times with PBS and the final cellular pellet was resuspended in DMEM supplemented with 10% serum and Pen/Strep, and incubated in 150 mm plates at 37 °C with 80% humidity and […]. The growth medium was removed and fresh medium was added every day for 10 days.
At the end of 10-day incubation period above, lung fibroblasts were confluent. […] One hundred μL of the growth medium was removed and 20 μL of MTT stock solution (prepared in PBS at 5.5 mg/ml concentration) was added and cells were incubated for 4 hours, then 100 μl of DMSO was added, and absorbance of developed color was monitored at 540-690 nm.

[2] = test system: L929 cells; assay: Survival of L929 cells (MTT); assay type: cell-based; settings: 500 μM, TGFb 5 ng/ml, 72 hrs, FIG. 4A
Procedure: Five thousand L929 cells were plated in completed DMEN and incubated until confluency for 3 days. Medium was removed and complete DMEM containg Prolin (20 μg/ml) and ascorbic acid (10 μM) was added. […] 100 μL of medium was removed, 20 μL MTT solution was added for 4 hrs, then 100 μl of DMSO was added, and absorbance of developed dark pink color was determined at […].

[3] = test system: L929 cells; assay: TGF-induced collagen synthesis in L929 cells, 96-well plate format (SIRCOL); assay type: cell-based; settings: 72 hrs, FIG. 4C
Procedure: Five thousand L929 cells were plated in complete DMEN and incubated until confluency for 3 days. Medium was removed and complete DMEM containg Prolin (20 μg/ml) and ascorbic acid (10 μM) was added. […] Cells were further incubated for 72 hrs. Supernatant was removed, 0.5% glutaraldehyde was added for 30 min at RT, removed, washed 3× with ddwater, 0.5 M acetic acid was added for 30 min at RT, removed, washed with water, air dried and 100 μl SIRCOL dye was added for 5 h at RT. Dye was removed, plate was washed extensively under running water, air dried and 200 μl of 0.5 M NaOH was added, plates were shaken at RT for 1 h, and OD was determined at 600 nm.

[4] = test system: L929 cells; assay: TGF-induced soluble collagen synthesis in L929 cells (ELISA); assay type: cell-based; settings: 500 μM, 72 hrs, FIG. 4D
Procedure: (§1) Five thousand L929 cells were plated in complete DMEN and incubated until confluency for 3 days.

[5] = test system: L929 cells; assay: TGF-induced soluble fibronectin synthesis in L929 cells (ELISA); assay type: cell-based; settings: 500 μM; FIG. 4E
Procedure: as §1
Fibronectin is another important component of fibrotic lungs as it is induced by TGF-β and functions both as a structural component of extra cellular matrix as well as well as a ligand for integrin receptors. Just like soluble collagen, binding of fibronectin to integrin receptors induces the proliferation of fibroblast and epithelial cells of the lungs.

[6] = test system: LPS-induced plasma TNFα; assay: LPS-induced plasma TNF-α after oral pretreatment in rats; assay type: in vivo, Sprague-Dawley rats; settings: Mean ± St. Dev., n = 6-8; for Plasma TNFα concentrations 4 hours after LPS: vehicle 693 ± 553; for Plasma TNFα concentrations 1.5 hours after LPS: vehicle 75389 ± 29107
Procedure: (§2) LPS was diluted with sterile saline to […] and sonicated at 40° C. for 20 minutes to generate a stock solution and stored at 4° C. Each day of use, the stock solution was further diluted to 0.03 mg/mL in sterile saline.
(§3) Male Sprague-Dawley rats with indwelling femoral and jugular venous catheters (n=6-8 per dose and test article group) were used in this study. […] Sixty minutes after the oral dose, 0.03 mg/kg of LPS in 1 mL/kg saline was infused into the jugular vein.
(§4) Blood samples were collected from the femoral vein into heparin-coated syringes 15 minutes prior to the LPS infusion (45 minutes after oral doses of test article), 90 minutes after the LPS infusion and 4 hours after the LPS infusion. Plasma was prepared by centrifugation of the blood samples at 14,000 rpm for 10 minutes. Plasma samples were stored at −70 ° C. until analysis.

[7] = test system: LPS-induced plasma IL-6; assay: LPS-induced plasma IL-6 after oral pretreatment in rats; assay type: in vivo, Sprague-Dawley rats; settings: Mean ± St. Dev, n = 6-8; for Plasma IL-6 concentrations 4 hours after LPS: vehicle 13989 ± 6125; for Plasma IL-6 concentrations 1.5 hours after LPS: vehicle 40423 ± 8653
Procedure: as §2, §3, §4

[8] = Phase 1 food effect study Part 2 (Cohort 5), single 500 mg dose fed vs fasted; assay type: in vivo, human; settings: LYT-100 @500 mg single dose
Procedure: The comparison will be based on Day 1, Day 2 and Day 3 PK plasma samples after the first dose of study drug on Day 1 under fast and fed conditions of Part 2.
Subjects will be admitted to the CRU on Day-1 and will fast overnight for at least 10 h.

[9] = test system: ICAM-1; vascular hyperpermeability; TGF-β and downstream signaling; assay: Other studies for pirfenidone mechanisms in acute and chronic interstitial lung diseases
[10] = rat, in vivo
Procedure: The original male TK animals received 1000 mg/kg of SD-559 on Day 1 and continued on study. The protocol was amended to add additional TK male animals in Group 6 for Day 1 collection of TK samples at 875 mg/kg.
Blood samples were collected from 3 subsets of 3 animals/sex on Day 1 and Day 28 at pre-dose, 0.25, 0.5, 1, 2, 4. 8 and 24 hours (hr) post-dose for groups 2 to 6 and from one subset of 3 animals/sex at 0.25 hr post-dose for the vehicle group (group 1). […] Non-compartmental analysis (NCA) of plasma concentration data was conducted using Phoenix® WinNonlin®, version 8.0.

[11] = human, in vivo
Procedure: (§5) Up to 5 dosing cohorts are planned in Part 1.
(§6) Additional cohorts and intermediate doses may be selected in lieu of predefined doses as noted and in accordance with safety and tolerability responses, but doses will not exceed 1000 mg BID or a total daily dose of 2000 mg.
(§7) A standardised lunch will be served ≥4 h post breakfast and ≥4 h prior to dinner. An evening snack will be served ≥3 h following evening study medication administration. No additional fluids will be allowed during the 1 h pre- and post-doses. On Day 6, subjects will replicate mealtimes as scheduled on Day 1-5.
(§8) Plasma PK parameters (non-compartmental or compartmental analysis as appropriate) will include, but are not limited to: • Following single dose: Tmax, tlag, Cmax, AUC0-4, AUC0-last, t1/2, AUC0-inf, lambda z, %AUCext, CL/F, Vz/F, Cmax/D, AUC0-last/D, AUC0-inf/D and MRT (D is dose) • After repeated doses: Ctrough, Ctrough/D • Following repeated doses on last day: Tmax, Cmax, Cavg, tlag, t1/2, AUC0-4, AUC0-last; AUC0-inf, lambda z, %AUCext, CLss/F, Vzss/F, MRT, PTF, Rac(AUC), Rac(Cmax), Cmax/D, AUClast/D, AUC0-inf/D and Rae (accumulation ratio).

[12] = Phase 1 multiple ascending dose (MAD) study Part 1, healthy volunteers (PK and safety); settings: 100 to 1000 mg BID, 5 days
Procedure: as §5, §6, §7, §8

[13] = 30 mg/kg oral pretreatment 1 hour prior to LPS injection
[14] = 100 mg/kg oral pretreatment 1 hour prior to LPS injection
[15] = 300 mg/kg oral pretreatment 1 hour prior to LPS injection

In the case of `[2H]C([2H])([2H])c1ccc(=O)n(-c2ccccc2)c1` [LYT-100, 5-(methyl-d3)-1-phenylpyridin-2-(1H)-one], the “Effect on survival of PMLF alone” value [1] is reported as “did not affect the survival”, the “Effect on survival of L929 cells” value [2] is reported as “does not affect survival” and the “Effect on TGF-β-induced total collagen levels” value ([3]; 500 μM 1 h prior to TGF-β 5 ng/ml) is reported as “inhibited or reduced”. For the same compound, the “Effect on total collagen level in the absence of TGF-β induction” value ([3]; 500 μM) was “signficantly inhibited or reduced”, the “Effect on soluble collagen levels in the absence of TGF-β-induction” value [4] was “signficantly reduced” and the “Effect on TGF-β-induced soluble collagen levels” value ([4]; TGF-β 5 ng/ml) was “significantly inhibits”. The “Effect on soluble fibronectin levels, in the absence and presence of TGF-β-induction” value [5] was “signficantly reduced”, the “Plasma TNFα concentrations 4 hours after LPS” value [6, 13] was 274 ± 95 pg/mL and the “Plasma TNFα concentrations 1.5 hours after LPS” value [6, 13] was 46382 ± 23254 pg/mL. For the same compound, the “Plasma TNFα concentrations 4 hours after LPS” value [6, 14] was 129 ± 65 pg/mL, the “Plasma TNFα concentrations 1.5 hours after LPS” value [6, 14] was 6403 ± 4812 pg/mL and the “Plasma TNFα concentrations 4 hours after LPS” value [6, 15] was 79 ± 46 pg/mL. For the same compound, the “Plasma TNFα concentrations 1.5 hours after LPS” value [6, 15] was 3162 ± 2668 pg/mL, the “Plasma IL-6 concentrations 4 hours after LPS” value [7, 13] was 8174 ± 5504 pg/mL and the “Plasma IL-6 concentrations 1.5 hours after LPS” value [7, 13] was 18197 ± 6484 pg/mL. The “Plasma IL-6 concentrations 4 hours after LPS” value [7, 14] was 4632 ± 5930 pg/mL, the “Plasma IL-6 concentrations 1.5 hours after LPS” value [7, 14] was 21642 ± 17174 pg/mL and the “Plasma IL-6 concentrations 4 hours after LPS” value [7, 15] was 1550 ± 1414 pg/mL. For the same compound, the “Plasma IL-6 concentrations 1.5 hours after LPS” value [7, 15] was 13519 ± 8674 pg/mL, the “AUC, % Change Fed vs Fasted” value [8] was −19% and the “Cmax, % Change Fed vs Fasted” value [8] was −23%. The “Tmax, % Change Fed vs Fasted” value [8] was “+25%”, the “Effect on ICAM-1” value [9] was “downregulates” and the “Effect on TGF-β and downstream signaling” value [9] was “suppresses”. The “Effect on vascular hyperpermeability” value [9] was “reduces”, the “Accumulation after multiple dosing for 28 Days” value [10] was “No accumulation” and the “Dose dependence of AUC96-108 across all dose Cohorts” value [11] was “linear dose proportionality”. For the same compound, the Dose limiting toxicities [11] was “no dose limiting toxicities observed”, the “Grading of adverse events” value [11] was “mild and transient” and the “AEs considered possibly related to treatment” value ([11]; 5 days) was 33. The “Most common AE, headache: subjects” value ([11]; 5 days) was 25%, the “Subjects who experienced adverse events” value ([11]; 5 days) was 33 subjects and the “Total adverse events (AEs)” value ([11]; 5 days) was 72. The Maximally tolerated dose [12] was “no maximally tolerated dose was reached”.

From patent publication US20230129866A1 (PureTech LYT 100, Inc., priority 2020, published 2023)
